Source: US20260256792A1, “TREATMENT OF CHRONIC SPONTANEOUS URTICARIA BY ADMINISTERING (R)-2-[3-[4-AMINO-3-(2-FLUORO-4-PHENOXY-PHENYL)PYRAZOLO[3,4-D]PYRIMIDIN-1-YL]PIPERIDINE-1-CARBONYL]-4-METHYL-4-[4-(OXETAN-3-YL)PIPERAZIN-1-YL]PENT-2-ENENITRILE” (priority 2023, published 2026)

What was measured:
[1] = system: moderate-to-severe chronic spontaneous urticaria (CSU); test: Phase 2 CSU study: Patient Global Impression of Severity (PGIS); type: in vivo, human; conditions: for PGIS Change from baseline Mean (SD) / PGIS Change from baseline Median / PGIS Median / PGIS Percent change from baseline Mean (SD) / PGIS Percent change from baseline Median / PGIS category Mild, patients / PGIS category Moderate, patients / PGIS category None, patients / PGIS category Severe, patients: omalizumab-naïve population; for PGIS % Change difference for rilzabrutinib vs. placebo LS Mean (95% CI) / PGIS % Change from baseline LS Mean (SE) / PGIS Change difference for rilzabrutinib vs. placebo LS Mean (95% CI) / PGIS Change from baseline LS Mean (SE): omalizumab-naïve, ANCOVA
Source text: The study comprises a 12 week, randomized, double-blind, placebo-controlled, multi-center, dose-ranging efficacy and safety phase, followed by a 40 week open label extension (OLE) phase (see FIG. 1).
The study consists of three phases and an optional OLE phase.
The PGIS is a 1-item measure that asks participants to provide a self-assessment of their overall CSU severity for the past week on a 4 point scale. Response choices are: “None”, “Mild”, “Moderate” and “Severe”. The PGIC is a 1-item measure that asks the participant to provide a self-assessment of overall change in their CSU since the participant started taking the study medication on a 7-point scale. The response options range from “Very Much Better” to “Very Much Worse.” Patients were to complete questionnaires for the 2 items during their site visit.

[2] = system: fetal development or male fertility; conditions: preclinical; cited from earlier work

CC(C)(C=C(C#N)C(=O)N1CCC[C@@H](n2nc(-c3ccc(Oc4ccccc4)cc3F)c3c(N)ncnc32)C1)N1CCN(C2COC2)CC1 [rilzabrutinib, (R)-2-[3-[4-amino-3-(2-fluoro-4-phenoxy-phenyl)pyrazolo[3,4-d]pyrimidin-1-yl]piperidine-1-carbonyl]-4-methyl-4-[4-(oxetan-3-yl)piperazin-1-yl]pent-2-enenitrile]
PGIS Change from baseline Mean (SD) ([1]; Week 8, 400 mg BID): −1.00 | PGIS Change from baseline Median ([1]; Week 8, 400 mg BID): −1.00 | PGIS Median ([1]; Week 8, 400 mg BID): 1.00 | PGIS Percent change from baseline Mean (SD) ([1]; Week 8, 400 mg BID): −44.95% | PGIS Percent change from baseline Median ([1]; Week 8, 400 mg BID): −50.00% | PGIS category Mild, patients ([1]; Week 8, 400 mg BID): 13 (39.4) | PGIS category Moderate, patients ([1]; Week 8, 400 mg BID): 7 (21.2) | PGIS category None, patients ([1]; Week 8, 400 mg BID): 9 (27.3) | PGIS category Severe, patients ([1]; Week 8, 400 mg BID): 4 (12.1) | PGIS % Change difference for rilzabrutinib vs. placebo LS Mean (95% CI) ([1]; Week 8, 400 mg BID): −12.18 (−30.63, 6.27) % | PGIS % Change from baseline LS Mean (SE) ([1]; Week 8, 400 mg BID): −46.44 (6.74) % | PGIS Change difference for rilzabrutinib vs. placebo LS Mean (95% CI) ([1]; Week 8, 400 mg BID): −0.25 (−0.67, 0.16) | PGIS Change from baseline Mean (SD) ([1]; Week 8, 400 mg QPM): 0.67 | PGIS Change from baseline Median ([1]; Week 8, 400 mg QPM): −1.00 | PGIS Median ([1]; Week 8, 400 mg QPM): 2.00 | PGIS Percent change from baseline Mean (SD) ([1]; Week 8, 400 mg QPM): −25.25% | PGIS Percent change from baseline Median ([1]; Week 8, 400 mg QPM): −33.33% | PGIS category Mild, patients ([1]; Week 8, 400 mg QPM): 10 (30.3) | PGIS category Moderate, patients ([1]; Week 8, 400 mg QPM): 14 (42.4) | PGIS category None, patients ([1]; Week 8, 400 mg QPM): 1 (3.0) | PGIS category Severe, patients ([1]; Week 8, 400 mg QPM): 8 (24.2) | PGIS % Change difference for rilzabrutinib vs. placebo LS Mean (95% CI) ([1]; Week 8, 400 mg QPM): 9.27 (−9.09, 27.62) % | PGIS % Change from baseline LS Mean (SE) ([1]; Week 8, 400 mg QPM): −24.99 (6.69) % | PGIS Change difference for rilzabrutinib vs. placebo LS Mean (95% CI) ([1]; Week 8, 400 mg QPM): 0.24 (−0.17, 0.65) | PGIS Change from baseline LS Mean (SE) ([1]; Week 8, 400 mg QPM): −0.61 (0.15) | PGIS Change from baseline Mean (SD) ([1]; Week 8, 400 mg TID): −1.13 | PGIS Change from baseline Median ([1]; Week 8, 400 mg TID): −1.00 | PGIS Median ([1]; Week 8, 400 mg TID): 1.00 | PGIS Percent change from baseline Mean (SD) ([1]; Week 8, 400 mg TID): 47.22% | PGIS Percent change from baseline Median ([1]; Week 8, 400 mg TID): −50.00% | PGIS category Mild, patients ([1]; Week 8, 400 mg TID): 12 (40.0) | PGIS category Moderate, patients ([1]; Week 8, 400 mg TID): 8 (26.7) | PGIS category None, patients ([1]; Week 8, 400 mg TID): 6 (20.0) | PGIS category Severe, patients ([1]; Week 8, 400 mg TID): 4 (13.3) | PGIS % Change difference for rilzabrutinib vs. placebo LS Mean (95% CI) ([1]; Week 8, 400 mg TID): −11.39 (−30.26, 7.48) % | PGIS % Change from baseline LS Mean (SE) ([1]; Week 8, 400 mg TID): −45.65 (7.05) % | PGIS Change difference for rilzabrutinib vs. placebo LS Mean (95% CI) ([1]; Week 8, 400 mg TID): −0.17 (−0.58, 0.25) | PGIS Change from baseline LS Mean (SE) ([1]; Week 8, 400 mg TID): −1.02 (0.15) | PGIS Change from baseline Mean (SD) ([1]; Week 12, 400 mg BID): −1.03 | PGIS Change from baseline Median ([1]; Week 12, 400 mg BID): −1.00 | PGIS Median ([1]; Week 12, 400 mg BID): 1.00 | PGIS Percent change from baseline Mean (SD) ([1]; Week 12, 400 mg BID): −43.55% | PGIS Percent change from baseline Median ([1]; Week 12, 400 mg BID): −50.00% | PGIS category Mild, patients ([1]; Week 12, 400 mg BID): 6 (19.4) | PGIS category Moderate, patients ([1]; Week 12, 400 mg BID): 10 (32.3) | PGIS category None, patients ([1]; Week 12, 400 mg BID): 12 (38.7) | PGIS category Severe, patients ([1]; Week 12, 400 mg BID): 3 (9.7) | PGIS % Change difference for rilzabrutinib vs. placebo LS Mean (95% CI) ([1]; Week 12, 400 mg BID): −13.46 (−33.69, 6.76) % | PGIS % Change from baseline LS Mean (SE) ([1]; Week 12, 400 mg BID): −45.76 (7.46) % | PGIS Change difference for rilzabrutinib vs. placebo LS Mean (95% CI) ([1]; Week 12, 400 mg BID): −0.34 (−0.77, 0.10) | PGIS Change from baseline LS Mean (SE) ([1]; Week 12, 400 mg BID): −1.14 (0.16) | PGIS Change from baseline Mean (SD) ([1]; Week 12, 400 mg QPM): −0.68 | PGIS Change from baseline Median ([1]; Week 12, 400 mg QPM): −1.00 | PGIS Median ([1]; Week 12, 400 mg QPM): 2.00 | PGIS Percent change from baseline Mean (SD) ([1]; Week 12, 400 mg QPM): −27.45% | PGIS Percent change from baseline Median ([1]; Week 12, 400 mg QPM): −33.33% | PGIS category Mild, patients ([1]; Week 12, 400 mg QPM): 10 (29.4) | PGIS category Moderate, patients ([1]; Week 12, 400 mg QPM): 15 (44.1) | PGIS category None, patients ([1]; Week 12, 400 mg QPM): 1 (2.9) | PGIS category Severe, patients ([1]; Week 12, 400 mg QPM): 8 (23.5) | PGIS % Change difference for rilzabrutinib vs. placebo LS Mean (95% CI) ([1]; Week 12, 400 mg QPM): 5.87 (−13.65, 25.38) % | PGIS % Change from baseline LS Mean (SE) ([1]; Week 12, 400 mg QPM): −26.42 (7.16) % | PGIS Change difference for rilzabrutinib vs. placebo LS Mean (95% CI) ([1]; Week 12, 400 mg QPM): 0.21 (−0.22, 0.63) | PGIS Change from baseline LS Mean (SE) ([1]; Week 12, 400 mg QPM): −0.59 (0.15) | PGIS Change from baseline Mean (SD) ([1]; Week 12, 400 mg TID): −1.17 | PGIS Change from baseline Median ([1]; Week 12, 400 mg TID): −1.00 | PGIS Median ([1]; Week 12, 400 mg TID): 1.00 | PGIS Percent change from baseline Mean (SD) ([1]; Week 12, 400 mg TID): −47.22% | PGIS Percent change from baseline Median ([1]; Week 12, 400 mg TID): −50.00% | PGIS category Mild, patients ([1]; Week 12, 400 mg TID): 13 (43.3) | PGIS category Moderate, patients ([1]; Week 12, 400 mg TID): 8 (26.7) | PGIS category None, patients ([1]; Week 12, 400 mg TID): 6 (20.0) | PGIS category Severe, patients ([1]; Week 12, 400 mg TID): 3 (10.0) | PGIS % Change difference for rilzabrutinib vs. placebo LS Mean (95% CI) ([1]; Week 12, 400 mg TID): −12.67 (−32.97, 7.63) % | PGIS % Change from baseline LS Mean (SE) ([1]; Week 12, 400 mg TID): −44.96 (7.44) % | PGIS Change difference for rilzabrutinib vs. placebo LS Mean (95% CI) ([1]; Week 12, 400 mg TID): −0.24 (−0.67, 0.19) | PGIS Change from baseline LS Mean (SE) ([1]; Week 12, 400 mg TID): −1.04 (0.16) | reproductive toxicity [2]: not expected to harm fetal development or male fertility
